Here are results for 5 molecules from patent publication US6146616A, “Antioxidant and/or antielastase composition based on lupine oil” (priority 1997, dated 2000).

One assay concerns the target T1, pancreatic elastase (Sus scrofa, UniProt P00772).
T1 construct: purchased Sigma E0258
Put plainly: Antielastase activity in sections of human skin explant (intact elastic fibers, image analysis). It counts as biochemical. The following applies: for % Inhibition of the elastase activity: elastase 5 IU/ml, 3 hours, 37° C.; for Inhibition (of elastase, graded 0 to +++): Table 8. The source says: The study of the antielastase activity represents a good indication of skin aging since it is now well known that the degradation of the elastic fibers present in the dermis involves endogenous elastases. The test used makes it possible to study the antielastase activity in vitro in sections of human skin explant. An application of purified elastase on a limited portion of the section is accompanied by degradation of the endogenous elastic fibers. The elastic fibers are stained with (+)-catechin. The percentage of intact elastic fibers per optical field is evaluated by image analysis. A product having antielastase activity makes it possible to preserve the integrity of the elastic fibers in the presence of purified elastase.
A pancreatic elastase (type IV, reference E0258, Sigma) is used. The medium for incubation of the human skin sections ("vehicle") is 0.1 M Herpes buffer, adjusted to pH 7.5 with sodium hydroxide containing 0.1 M sodium chloride.
The skin sections are produced from surgical waste collected after abdominal plastic surgery. The donor was a person. Explants of 1 cm in diameter are produced and they are deposited on a cork support and they are frozen at -80° C. Transverse sections 6 µm thick are produced with a cryomicrotome. The sections are fixed on glass slides and maintained hydrated with the vehicle during the test.
The test products are tested at 0.5; 1 and 5% (v/v) in the vehicle.
The elastatinal is tested at 0.01 and 0.1% (w/v) in the vehicle.
The mercuric chloride is tested at 0.025 and 0.125% (w/v) in the vehicle.
The dilutions of the test products and of the reference products are deposited on the skin sections in an amount of 100 μl per section (0.32 cm^2 in surface area), and preincubated for ten minutes at 37° C. Filter paper strips (0.16 cm^2 in surface area) impregnated with the vehicle alone (control vehicle) or containing pancreatic elastase at 5 international units (IU)/ml (control enzyme) are deposited on the sections. The slides are placed in a humid chamber at 37° C. for three hours.
After incubation, the sections are rinsed with the incubation medium and stained with (+)-catechin. The activity of the enzyme in the absence and in the presence of the test products or of the reference products is evaluated by image analysis: the image of the stained sections is digitized on a video screen; a software for image analysis makes it possible to measure the amounts of gray in the binary images; the surface area occupied by the intact elastic fibers is measured. The results are expressed as percentage of intact elastic fibers per optical field.
The percentage inhibition of the elastase activity of the test products and of the reference products is calculated with the aid of the following formula: [formula]
The antielastase activity is determined under the conditions indicated in IV above.

The test system of a further assay is plasmid DNA (pBS). Put plainly: 3-D test: protection of adsorbed plasmid DNA against singlet oxygen generated by illuminated methylene blue. It is filed as biochemical. The following applies: for % Specific inhibition: methylene blue + light; for % Aspecific inhibition: on predamaged plasmid pBS^UV, absence of ROS. The text has this: The test used is a biological system of detecting damage (3-D test) on DNA captured on a microplate (Analytical Biochemistry, 1995, 232, 37-42). The damage is recognized by the repair enzymes and repaired by purified cellular extracts. The repair of the lesions involves a phase for excision and then resynthesis of the damaged and excised DNA fragment. During the reparative synthesis stage, one or more modified nucleotides (digoxigenylated dUTP or DIG-11-dUTP) are incorporated into the DNA. These nucleotides are then recognized by anti-DIG antibodies coupled to alkaline phosphatase. An alkaline phosphatase substrate (Lumi-Phos 530) is then added and the luminescent signal emitted is measured by a luminometer (Lumax 2, marketed by the company S.F.R.I.). The intensity of the signal obtained depends on the different parameters (extracts, salt concentration, quantity of DNA, reaction time and the like) including that relating to the number of lesions repaired, and therefore of lesions present on the DNA. A dose-response relationship is observed within the limit of 1 to 15 lesions per 6 kilobases for most of the lesions.
This system is capable of repairing any type of lesion since all the enzymes for repairing DNA lesions are present and active in the extracts. The oxidative damage is therefore recognized in this system.
The damage is caused by reactive oxygen species (ROS) by means of a system which induces the formation of lesions on the DNA adsorbed in a well, leading to the reading of a reparative synthesis signal. In the presence of a compound or of a mixture of compounds which make it possible to protect DNA as a result, for example, of antioxidant or anti-free radical properties, a decrease or even an elimination of the repair signal, a reflection of the quantity of lesions, is observed.
ROS ^1 O2, a powerful electrophile which has a very short life, is generated by illumination of methylene blue. It therefore reacts very rapidly with the bases in the DNA and produces various types of damage such as modification of bases or loss of bases, which are very genotoxic.
Ultrapurified plasmid DNA (pBS) (predominantly supercoiled form) is placed in contact with the wells sensitized by poly-lysine for 30 minutes at 30° C., with gentle shaking, at a concentration of 1 μg/ml in a volume of 50 μl. Under these conditions, the adsorption of the DNA is quantitative (about 40 ng per well).
A positive control for repair, consisting of a plasmid predamaged by UV-C (called pBS^UV), is added.
After incubation, the wells are washed twice with a solution of PBS supplemented with 0.1% Tween 20.
A stock solution of methylene blue at 10 μg/ml is diluted to a concentration of 4 ng/ml in ultrapure water (MilliQ quality from Millipore).
This solution is mixed in an equal volume with various dilutions of the samples, and 50 μl of the mixture (at 2 ng/ml of methylene blue) are added to the wells containing the adsorbed plasmid DNA. The wells are placed on ice and illuminated for 20 minutes with 2 lamps of 100 W, 30 cm apart.
The four samples were tested at 3 dilutions.
The dilutions were made 2X, in propylene glycol, in order to obtain the desired dilutions after addition of a volume of methylene blue solution of 4 ng/ml.
In order to check that the decrease in the repair signal is not aspecific, the same dilutions (IX) are incubated under the same conditions on pBS^UV. […] An inhibition of the control repair signal for pBS^UV can, for example, be explained by a direct interaction of the sample with the DNA which blocks access of the lesions to the repair enzymes.
These different dilutions were incubated on the nondamaged DNA (pBS) and illuminated in the absence of methylene blue. This test makes it possible to check that the product tested is not genotoxic.
They are expressed as the percentage residual repair inhibition. The 0% value corresponds to the repair signal under the condition of methylene blue treatment alone. […]

Assay [1] deals with human epidermal keratinocytes. Put plainly: Anti-free radical activity: hydroperoxides by fluorometry in UVA-irradiated keratinocytes. It counts as cell-based. The following applies: Keratinocyte, light or radiation study, 1.5 h, 0.1% (w/v), UVA 90 minutes (10 J/cm^2), read-out: % protection.
From the text: The cells are human epidermal keratinocytes. […] The cells are used at the sixth passage, they are inoculated at 1×10^5 cells per well into 6-well culture plates. They are used at confluence.
It is quantified by a fluorometric method which detects the quantity of hydroperoxides which are metabolites of free radicals. An appropriate probe which converts to a fluorescent derivative in their presence is used, according to the method described by Keston A. S. and Brandt R. (The fluorometric analysis of ultramicro quantities of hydrogen peroxide, Anal. Biochem. 11, 1965, 1-5).
The free radicals are generated at the cell culture level by irradiation with ultraviolet A rays. […]
After irradiation, the keratinocytes are lyzed by the action of ultrasound. The cellular lysates are transferred into 96-well plates and analyzed by fluorimetry with the aid of a plate analyzer (excitation: 355 nm, emission: 460 nm).
The results are expressed in fluorescence unit/culture well.
The percentage protection of the test products or of the reference products R1 and R2 was calculated with the aid of the following formula: [formula]
By convention, when the values measured in the presence of the test products or in the presence of the reference products were less than those of the "non-irradiated control", the percentage protection was expressed as 100%.

SMILES strings stand for the structures.

T1 sequence (P00772 27-266): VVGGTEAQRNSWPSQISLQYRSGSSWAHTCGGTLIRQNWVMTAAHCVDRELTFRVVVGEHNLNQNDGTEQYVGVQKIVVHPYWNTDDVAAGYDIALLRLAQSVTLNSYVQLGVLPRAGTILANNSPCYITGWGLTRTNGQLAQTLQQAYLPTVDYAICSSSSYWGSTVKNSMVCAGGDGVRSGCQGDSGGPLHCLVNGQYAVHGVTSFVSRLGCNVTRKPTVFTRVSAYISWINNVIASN

On to `CC(C)C[C@H](NC(=O)N[C@H](C(=O)N[C@@H](CCC(N)=O)C(=O)N[C@@H](C)C=O)[C@@H]1CCNC(=N)N1)C(=O)O` [Elastatinal, elastatinal], for which the “% Inhibition of the elastase activity” value at pancreatic elastase (0.01% (w/v)) amounted to 71.5%; on pancreatic elastase (0.01% (w/v), listed as elastatinal), 71%; at pancreatic elastase (0.1% (w/v)), 59.9%; at pancreatic elastase (0.1% (w/v), listed as elastatinal), 60%. The “Inhibition (of elastase, graded 0 to +++)” value on pancreatic elastase (0.1% (w/v)) is “strongly inhibits”.

As to `CC1=C(/C=C/C(C)=C/C=C/C(C)=C/C=C/C=C(C)/C=C/C=C(C)/C=C/C2=C(C)CCCC2(C)C)C(C)(C)CCC1` [Control, β-carotene], in the assay with plasmid DNA (pBS) (0.01%), the “% Specific inhibition” value turned out to be 45% and the “% Aspecific inhibition” value is recorded as 0%. Also, in the assay with plasmid DNA (pBS) (0.01 to 1%), the “aspecific effect / aspecificity (in words)” value is given as “does not show, on the other hand, aspecificity” and the “protective properties on DNA towards singlet oxygen (in words)” value is recorded as “does not exhibit a dose-effect”. In addition, in the assay with plasmid DNA (pBS) (0.1%), the “% Specific inhibition” value came to 53% and the “% Aspecific inhibition” value was “+2%”. For the same molecule, in the assay on plasmid DNA (pBS) (1%), the “% Specific inhibition” value was 45% and the “% Aspecific inhibition” value worked out at 0%.

On to `CC(=O)Oc1c(C)c(C)c2c(c1C)CCC(C)(CCCC(C)CCCC(C)CCCC(C)C)O2` (centres unmarked) [Vitamin E acetate, vitamin E acetate], for which, in assay [1], the inhibition at 0.1 % came out at 65%.

In the case of `[Cl][Hg][Cl]` [Mercuric chloride, mercuric chloride], the “% Inhibition of the elastase activity” value at pancreatic elastase (0.025% (w/v)) was 18.4%; on pancreatic elastase (0.025% (w/v), listed as mercuric chloride), 18%; on pancreatic elastase (0.125% (w/v)) it was 39.3%; on pancreatic elastase (0.125% (w/v), listed as mercuric chloride), 39%. Further, the “Inhibition (of elastase, graded 0 to +++)” value on pancreatic elastase (0.125% (w/v)) was “strongly inhibits”.

Take `CC(O)CO` (centres unmarked) [Propylene glycol, propylene glycol]: the “% Specific inhibition” value in the assay on plasmid DNA (pBS) (0.01%) is 0%; with plasmid DNA (pBS) (0.1%), 6%; in the assay on plasmid DNA (pBS) (1%), 13%. Further, the “% Aspecific inhibition” value with plasmid DNA (pBS) (0.01%) is 2%; in the assay on plasmid DNA (pBS) (0.1%), 6%; in the assay with plasmid DNA (pBS) (1%) it was 7%. In the assay on plasmid DNA (pBS) (0.01 to 1%), the “protective properties on DNA towards singlet oxygen (in words)” value was “only very weak protective properties”.
